Tests used:
Ugt1a9 = assay: Northern blot of liver Ugt1a9 mRNA after ip dosing; type: in vivo, mice; conditions: for Ugt1a9 mRNA: mean ± SEM
Procedure: (§1) Linking efficacy to biochemical parameters and a mechanism was limited in the initial study by only two parameters, [Se] and GPx activity. The in-vivo effects of selenazolidine compounds were then evaluated using, in addition to GPx, glutathione S-transferases (GSTs), quinone oxidoreductases (NQORs), UDP-glucuronosyltransferases (UGTs), and microsomal epoxide hydrolase (mEH). To investigate transcriptional changes of these classes of enzymes, it was necessary to develop a battery of cDNA probes for use in Northern blot analysis of RNA extracted from treated animals (Table 2).
(§2) Whether the selenaproline compounds had the ability to up-regulate the transcription of Phase II and/or other “protective” enzymes was first evaluated following a single dose of each (Table 3). […] The experiment was repeated but with a 7-day treatment regimen (Table 4), the time period for which the compounds were given in the diet before NNK administration in the tumor experiment reported in Table 1. […] With multiple doses, SCA induced Ugt1a9, an mRNA that was not changed with a single dose. […] The elevation in the Gst-mu transcript was unique to multiple OSCA treatment. The elevation of the GST-alpha mRNA was also seen with SCA treatment. Microsomal epoxide hydrolase mRNA was robustly elevated by multiple doses of all three selenaproline compounds, an effect not anticipated from the single dose experiment where not even minor changes were apparent.

Gst-mu = assay: Northern blot of liver Gst-mu mRNA after ip dosing; type: in vivo, mice; conditions: mean ± SEM
Procedure: as §1, §2

[1] = system: 'protective' enzyme mRNAs; assay: Northern blot of 'protective' enzyme mRNAs (all probes) after ip dosing; type: in vivo, mice; conditions: 7 daily doses ip, with corn oil
Procedure: as §1
(§3) Many of the mRNA changes seen with a single dose were not sustained with multiple dosing. Changes in Ugt transcripts after multiple dosing were noticeably absent. Unique to BSCA among the four new compounds investigated was its ability to induce Gst-alpha, Gst-mu and GPx mRNAs. For the Gst-alpha transcripts, which appeared elevated by corn oil, the BSCA increase was much greater than the vehicle alone (8-fold versus 2-fold) and was statistically significant (p<0.05). BSCA shared with PhOHSCA the ability to elevate mEH mRNA.

GPx = assay: Northern blot of liver GPx mRNA after ip dosing; type: in vivo, mice; conditions: mean ± SEM
Procedure: as §1, §2

[2] = sALT (hepatotoxicity) after 7 daily ip doses; type: in vivo; design: unit not given here; conditions: 7 daily doses ip, 1.25 mg Se/kg, with corn oil; untreated mice 37.5 ± 2.9
Excerpt: as §3

mEH = assay: Northern blot of liver mEH mRNA after ip dosing; type: in vivo, mice; conditions: mean ± SEM
Procedure: as §1, §2

Gst-alpha = assay: Northern blot of liver Gst-alpha mRNA after ip dosing; type: in vivo, mice; conditions: mean ± SEM
Procedure: as §1, §2

Ugt1a1 = assay: Northern blot of liver Ugt1a1 mRNA after ip dosing; type: in vivo, mice; conditions: 7 daily doses ip, 1.25 mg Se/kg, with corn oil, liver RNA 24 hours after the last dose, mean ± SEM
Procedure: as §1, §2

Ugt1a6 = assay: Northern blot of liver Ugt1a6 mRNA after ip dosing; type: in vivo, mice; conditions: 7 daily doses ip, 1.25 mg Se/kg, with corn oil, liver RNA 24 hours after the last dose, mean ± SEM
Procedure: as §1, §2

E. coli AB1157 [3] = assay: Toxicity in E. coli AB1157 (colony forming ability); type: cell-based; conditions: E. coli AB1157, cell viability by colony forming ability
Procedure: (§4) A well characterized bacterial system was used as an initial screen for radioprotective activity of the novel compounds. A single colony of the bacteria, growing on a plate of LB medium (10 g tryptone, 5 g yeast extract, plus 5 g NaCl in 1 L water), was inoculated into 2 mL LB and incubated overnight. 20 mL LB medium were then inoculated with 600 μL of the overnight culture, and incubated with shaking at 37° C., 250 rpm. The cells were collected and washed with phosphate buffered saline. At this point the bacteria could be irradiated, treated with drug, etc., as outlined below. After dilution of the treated cells to 100 cells per 100 μL, they are plated out and incubated overnight. Cell viability is then measured by colony forming ability.
The toxicity of the compounds of interest in this system was explored.

E. coli AB1157 [4] = assay: Radioprotection in E. coli AB1157; type: cell-based; conditions: E. coli AB1157, agent 1 hour before irradiation at 0.6 kGy
Procedure: Radioprotection in E. coli AB1157
as §4
Growth curves were generated for the bacteria in the absence of any treatment to provide experience with basic handling as well as important baseline information. The radiation dose response of the system was investigated irradiating bacterial cultures in a Shepherd Mark I ^137Cs irradiator over a dose range of 0 to 1 kGy. The dose-response curves are linear and reproducible from day to day.
Radioprotection experiments were also conducted in the bacterial system. […] Surviving fraction compared to that seen in control (untreated) cells, which were not irradiated, was then calculated.

[5] = 1 dose ip, 1.25 mg Se/kg in corn oil, liver RNA 24 hours after dosing
[6] = 7 daily doses ip, 1.25 mg Se/kg, with corn oil, liver RNA 24 hours after the last dose

Compound	Ugt1a9 mRNA (Ugt1a9; [5]) [fold change from naive]	Ugt1a9 mRNA (Ugt1a9; [6])	Gst-mu mRNA (Gst-mu; [5]) [fold change from naive]	Gst-mu mRNA (Gst-mu; [6]) [fold change from naive]	GPx mRNA (GPx; [6]) [fold change from naive]	sALT [2]	mEH mRNA (mEH; [5]) [fold change from naive]	Gst-alpha mRNA (Gst-alpha; [5]) [fold change from naive]	Gst-alpha mRNA (Gst-alpha; [6]) [fold change from naive]	Ugt1a1 mRNA (Ugt1a1)	Ugt1a6 mRNA (Ugt1a6) [fold change from naive]	Toxicity in the bacterial system (E. coli AB1157 [3])	other results
O=C(O)C1C[Se]C(C2CCCCC2)N1 (mixture of isomers) [ChSCA, 2-cyclohexyl-SCA]	3.04 ± 0.55	1.16 ± 0.13 fold change from naive	1.20 ± 0.15	1.32 ± 0.21	2.26 ± 0.66	40.0 ± 1.7	1.34 ± 0.41	1.73 ± 0.20	1.99 ± 0.77	1.20 ± 0.17 fold change from naive	1.22 ± 0.17		Ugt1a9 mRNA (Ugt1a9; 1 dose ip, 1.25 mg Se/kg in corn oil, liver RNA 24 hours after dosing, listed as CnSCA): statistically elevated; Induction of 'protective' enzyme mRNAs (any) [1]: failed to induce any mRNAs; GPx mRNA (GPx; [5]): 1.20 ± 0.15 fold change from naive; mEH mRNA (mEH; [6]): 1.31 ± 0.19 fold change from naive
O=C1NCCS1 [2-oxocysteamine prodrug, 2-Thiazolidinone]												completely eliminated the profound toxicity observed with cysteamine itself	
2-(2-hydroxyphenyl)-SCA [PhOHSCA]	1.65 ± 0.32	1.06 ± .14 fold change from naive	1.18 ± 0.32	1.54 ± 0.23	1.51 ± 0.50	42.4 ± 3.0	1.38 ± 0.48	1.49 ± 0.22	1.91 ± 0.71	0.77 ± .04 fold change from naive	0.99 ± 0.14		Ugt1a9 transcript expression compared to the corn oil effect (Ugt1a9; 1 dose ip, in corn oil, comparison with corn oil alone): significantly reduced
NC1CCSC1=O (stereo not drawn) [HCTL, homocysteine thiolactone]													Radioprotection (surviving fraction) (E. coli AB1157 [4]): greatest amount of protection
NCCCN1CCSC1=O [2-oxo prodrug, 3-(3-Aminopropyl)-2-thiazolidinone]												neither WR-1065 nor its 2-oxo prodrug produced any toxicity	
